Laboratory results as given in patent US20020107202A1, “Synthetic complementary peptides and ophthalmologic uses thereof” (priority 1999, published 2002).
No end group written: not given here.

What was measured:
resting PMNs = assay: Polarization assay: substance alone on resting PMNs (agonist activity, chemoattractant response); assay type: cell-based, human; conditions: none up to the given concentration
Protocol: (§1) Following the technique of Ferrante and Thong^13, polymorphonuclear leukocytes were isolated from fresh heparinized human whole blood by centrifugation on Hypaque-Ficoll (density=1.114) according to a described method^14. Isolated polymorphonuclear leukocytes (96-99% viability) were resuspended in HBSS with 15 mM phosphate buffer at room temperature and gently agitated on a shaker. The purity of this cell suspension was ≧85% polymorphonuclear leukocytes, ≦5% mononuclear cells and platelets, with the remaining percentage consisting of red blood cells. Purified polymorphonuclear leukocytes were used in the polarization assay. All incubation mixtures were maintained between an osmolality of 280 to 320, a pH range of 7.2 to 7.6, 15 mM phosphate buffer, and 50 μM Ca^2+ and 50 μM Mg^2+.
The polarization assay^15 was performed in a blind fashion. This assay was used to determine the polymorphonuclear leukocyte response to chemoattractants and inhibitors by measuring the frequency and degree of cellular shape change. Briefly, 2×10^5 polymorphonuclear leukocytes were mixed with preincubated synthetic complementary peptides and chemoattractants in a reaction chamber (total volume=100 μl) at 37° C. for 5 min. At the end of the incubation period an aliquot was collected and mixed with an equal volume of 4% glutaraldehyde for microscopic observation. The remaining volume of each cell suspension was immediately centrifuged at 15,000× g for 5 seconds to remove cells. The resulting supernatant was analyzed for lactic dehydrogenase activity.^16 All incubations generated lactate dehydrogenase activity correlating with <5% cell death. Polymorphonuclear leukocytes in each sample were observed microscopically and assigned scores of 0 (resting=spherical cell with a smooth membrane), 1 (activated=irregular cell with uneven membranes) or 2 (polarized=cell length≧width×2). Scores of 100 polymorphonuclear leukocytes for each sample were added to produce a polarization index. A dose response was performed for each chemoattractant. […]

[1] = tested on: PMN activated by ultrafiltered tripeptide chemoattractants; assay: Polarization assay: inhibition of PMN polarization activated by alkali-degraded rabbit corneal ultrafiltrate; assay type: cell-based, human
Protocol: (§2) Following the technique of Ferrante and Thong^13, polymorphonuclear leukocytes were isolated from fresh heparinized human whole blood by centrifugation on Hypaque-Ficoll (density=1.114) according to a described method^14. […] Purified polymorphonuclear leukocytes were used in the polarization assay. All incubation mixtures were maintained between an osmolality of 280 to 320, a pH range of 7.2 to 7.6, 15 mM phosphate buffer, and 50 μM Ca^2+ and 50 μM Mg^2+.
(§3) The polarization assay^15 was performed in a blind fashion. This assay was used to determine the polymorphonuclear leukocyte response to chemoattractants and inhibitors by measuring the frequency and degree of cellular shape change. Briefly, 2×10^5 polymorphonuclear leukocytes were mixed with preincubated synthetic complementary peptides and chemoattractants in a reaction chamber (total volume=100 μl) at 37° C. for 5 min. At the end of the incubation period an aliquot was collected and mixed with an equal volume of 4% glutaraldehyde for microscopic observation. The remaining volume of each cell suspension was immediately centrifuged at 15,000× g for 5 seconds to remove cells. […] Polymorphonuclear leukocytes in each sample were observed microscopically and assigned scores of 0 (resting=spherical cell with a smooth membrane), 1 (activated=irregular cell with uneven membranes) or 2 (polarized=cell length≧width×2). Scores of 100 polymorphonuclear leukocytes for each sample were added to produce a polarization index. A dose response was performed for each chemoattractant. A concentration of each chemoattractant was chosen from the linear portion of each dose response curve and used as the positive control. Negative control samples consisted of polymorphonuclear leukocytes in HBSS only. […] The Student's t-test (unpaired) was used to analyze the differences in the mean polarization response between polymorphonuclear leukocytes activated with the chemoattractant in the absence or presence of complementary peptides.

[2] = tested on: N-acetyl-PGP activated PMN; assay: Polarization assay: inhibition of N-acetyl-PGP activated PMN polarization; assay type: cell-based, human; conditions: for inhibitory properties against N-acetyl-PGP, fold less than the RTR dimer: comparison of ID50 values
Protocol: as §2, §3

LTB4 activated PMN = assay: Polarization assay: inhibition of LTB4 activated PMN polarization; assay type: cell-based, human
Protocol: LTB4 was dissolved in ethanol and diluted with HBSS (pH 7.3) to a final ethanol concentration of 0.001%. Synthetic complementary peptides and synthetic chemoattractants were dissolved in HBSS (pH 7.3). When necessary, the osmolality was adjusted between 280 and 320 mOsm by adding a small amount of distilled water.
as §1
The polarization assay^15 was performed in a blind fashion. […] The resulting supernatant was analyzed for lactic dehydrogenase activity.^16 All incubations generated lactate dehydrogenase activity correlating with <5% cell death. […]

[3] = tested on: alkali-injured rabbit eye; assay: Alkali-injury model, corneal ulceration; assay type: in vivo
Protocol: Animals were maintained and treated in full compliance with the Association for Research in Vision and Ophthalmology (ARVO) Resolution on the Use of Animals in Research. Forty-eight New Zealand Dutch strain albino rabbits (Myrtles Rabbitry, Thompson Station, Tenn., U.S.A.) weighing 2.0 to 2.5 kg were anesthetized with ketamine HCl (12 mg/kg) and xylazine (7.5 mg/kg). Two drops of topical proparacaine (Allergan, Hormigueros, Puerto Rico) were placed in the right eye of each rabbit. Following ocular proptosis, a 12 mm plastic well was centered on the cornea and 0.4 ml of 1 N NaOH instilled into the well and left for a period of 35 sec. The alkali was aspirated and the well irrigated with 10 ml of physiological saline. Erythromycin ointment (0.5%) was applied two times a day and study medications given by the technique of Fraunfelder. Double blind examinations (slit lamp and dissecting microscopy) were conducted on Monday, Wednesday and Friday with photographs on Wednesday. Evaluation was made for the presence and size of epithelial defects, corneal ulceration, perforation and vascularization. Animals were randomly subdivided into two groups of 16 eyes each: 1) Phosphate buffered saline (PBS) control and 2) 800 μM (D)-RTR tetramer in PBS or 1.5 mM (L)-RTR tetramer in PBS alternating every hour. Each animal received one drop of the appropriate medication every hour for 14 hours a day for 33 days and dropping was discontinued until the end of the experiment on day 42.

[4] = day 42, 16 eyes, topical drops to day 33

| Substance | Agonist Activity (resting PMNs) | inhibition of PMNs activated by the ultrafiltered tripeptide chemoattractants, in words [1] | inhibition of N-acetyl-PGP activated PMN polarization, in words [2] | inhibitory properties against N-acetyl-PGP, fold less than the RTR dimer [2] [fold] | antagonism of LTB4 activation of PMNs, in words (LTB4 activated PMN) | affinity for N-acetyl-PGP, fold greater than the RTR monomer [2] | TOTAL ULCERS End of expt (day 42) (number) ([3]; 16 eyes, day 42) | TOTAL ULCERS End of expt (day 42) (percent of eyes) ([3]; 16 eyes, day 42) [%] | TOTAL ULCERS During expt (number) ([3]; 16 eyes, during experiment) | TOTAL ULCERS During expt (percent of eyes) ([3]; 16 eyes, during experiment) [%] | incidence of corneal ulcers after alkali-injury, in words ([3]; compared to PBS group) | number of ulcers ([3]; day 33, 16 eyes, 800 μM (D)- and 1.5 mM (L)-RTR tetramer drops alternating every hour) [ulcers] | ULCER DEPTH: Anterior (eyes) [3, 4] | ULCER DEPTH: Descemetocele (eyes) [3, 4] | ULCER DEPTH: Middle (eyes) [3, 4] | ULCER DEPTH: No Ulcer (eyes) [3, 4] | ULCER DEPTH: Perforation (eyes) [3, 4] | ULCER DEPTH: Posterior (eyes) [3, 4] |
| --- | --- | --- | --- | --- | --- | --- | --- | --- | --- | --- | --- | --- | --- | --- | --- | --- | --- | --- |
| Arg-Thr-Arg [RTR] | None, ≦ 40 mM | inhibited | only antagonistic at millimolar concentrations | 20 | – | – | – | – | – | – | – | – | – | – | – | – | – | – |
| ((H2N-Arg-Thr-Arg-Gly-Gly)2-Lys)2-Lys-Ala-CONH2 (H-RTRGG; also: tetrameric Lys-branched, on Lys-Ala-CONH2 core) [RTR tetramer] | None, ≦ 8 mM | inhibited | – | – | no effect on LTB4 | 10,000 fold | 6 | 37.5 | 7 | 43.8 | statistically significant reduction in the frequency of corneal ulceration | 4 | 4 | 1 | 0 | 9 | 0 | 2 |
| RTRGG | None, ≦ 40 mM | inhibited | only antagonistic at millimolar concentrations | 20 | – | – | – | – | – | – | – | – | – | – | – | – | – | – |
